According to article PMC3933693, “Novel Inhibitors of Mitochondrial sn-Glycerol 3-phosphate Dehydrogenase” (PLoS ONE, 2014):

Target: T1, flavin site of complex II (site IIF) (Rattus norvegicus, UniProt Q920L2)
T1 construct: from tissue; host or cells: skeletal muscle mitochondria
Experiment: Site-specific H2O2 production from site IIF in skeletal muscle mitochondria
Assay type: biochemical
Settings: primary screen, ∼2.5 µM, average of duplicates; palmitoylcarnitine
How it was run: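 Isolated rat skeletal muscle mitochondria; H2O2 read by Amplex UltraRed with added SOD and HRP. Site IF/DH: 5 mM glutamate, 5 mM malate, 4 µM rotenone. Site IIF: palmitoylcarnitine or succinate with rotenone/antimycin A/myxothiazol. Site IIIQo: succinate, rotenone, antimycin A. Screen at 2.5 µM, normalised as % change from DMSO.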

T1 sequence (Q920L2 35-656): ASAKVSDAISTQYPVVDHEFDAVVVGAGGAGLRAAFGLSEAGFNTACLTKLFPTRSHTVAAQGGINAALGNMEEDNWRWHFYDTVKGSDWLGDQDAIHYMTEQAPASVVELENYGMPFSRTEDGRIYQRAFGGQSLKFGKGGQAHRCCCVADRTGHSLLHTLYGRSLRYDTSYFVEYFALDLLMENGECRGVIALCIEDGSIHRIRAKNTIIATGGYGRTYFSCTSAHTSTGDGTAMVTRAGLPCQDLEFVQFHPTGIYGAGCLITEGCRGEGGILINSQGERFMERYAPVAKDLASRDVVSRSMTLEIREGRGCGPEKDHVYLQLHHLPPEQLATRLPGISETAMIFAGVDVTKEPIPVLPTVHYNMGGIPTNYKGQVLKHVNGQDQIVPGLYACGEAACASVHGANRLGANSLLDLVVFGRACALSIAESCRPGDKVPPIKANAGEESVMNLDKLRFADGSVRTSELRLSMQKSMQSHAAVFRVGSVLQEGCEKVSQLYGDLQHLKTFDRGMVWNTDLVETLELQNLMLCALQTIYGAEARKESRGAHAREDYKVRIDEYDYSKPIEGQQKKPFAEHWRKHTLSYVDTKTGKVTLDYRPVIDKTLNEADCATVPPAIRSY
T1 sequence (P21913 31-282 partner): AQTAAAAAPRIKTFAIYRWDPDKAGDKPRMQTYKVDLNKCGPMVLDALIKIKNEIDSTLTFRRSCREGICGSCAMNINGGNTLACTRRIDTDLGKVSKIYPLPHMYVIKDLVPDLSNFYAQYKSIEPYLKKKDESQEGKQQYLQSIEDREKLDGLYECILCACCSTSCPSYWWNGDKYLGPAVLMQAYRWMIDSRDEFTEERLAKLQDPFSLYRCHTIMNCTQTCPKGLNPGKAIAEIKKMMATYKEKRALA
T1 sequence (Q641Z9 30-169 partner limits assumed): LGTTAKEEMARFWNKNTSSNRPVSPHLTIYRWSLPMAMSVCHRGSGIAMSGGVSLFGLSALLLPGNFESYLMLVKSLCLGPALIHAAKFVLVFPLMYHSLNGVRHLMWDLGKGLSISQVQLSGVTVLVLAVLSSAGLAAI
T1 sequence (Q6PCT8 57-159 partner): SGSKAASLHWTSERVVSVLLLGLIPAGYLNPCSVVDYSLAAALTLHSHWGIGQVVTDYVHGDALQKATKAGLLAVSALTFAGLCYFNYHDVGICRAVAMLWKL

IIF (% change from DMSO): 3.6%
SMILES: O=C(O)CCC(=O)Nc1ccc(-c2nc3ccccc3[nH]2)cc1 [iGP-1]
